We go through two molecules from publication PMC4579270, “Identification and Characterization of an Irreversible Inhibitor of CDK2” (Chemistry & Biology, 2015).

SMILES strings stand for the structures. “Also recorded” adds a separate entry of the source.

Test [1] deals with CDK2-Cyclin A (Homo sapiens, UniProt P24941). Nature of the test: Kinase assay against GST-Rb after overnight incubation and dialysis. The conditions noted are these: wild-type CDK2/cyclin A, overnight with 1 mM inhibitor, dialysed 8 h. More on the design: made in house; host or cells: Escherichia coli (CDK2 co-expressed with S. cerevisiae CAK1). The class given is biochemical. As to the method: To confirm the results of the ESI-MS and SPR analysis, CDK2/cyclin A was incubated with either NU6300 or NU6310, then the samples and appropriate controls were dialyzed. The resulting CDK2/cyclin A activity was analyzed in an in vitro kinase assay against a C-terminal fragment of the retinoblastoma protein Rb. After an overnight incubation in the presence of NU6300, CDK2 activity was not recovered after dialysis (Figure 2C). […] The activity of NU6300 was also characterized in an alternative kinase assay format (ADP-Glo;^, Promega) in which covalent inhibition of CDK2/cyclin A was allowed to proceed in a pre-incubation phase and was assessed in a subsequent activity assay, where enzyme and inhibitor were diluted such that the inhibitor was present at 20-fold below its IC50 value. The samples and appropriate controls were incubated for 0, 10, 30, 60, and 120 min, prior to addition of ATP and peptide substrate (sequence HHASPRK, single-letter amino acid code), to initiate the kinase reaction. […]
CDK2/cyclin A (200 µM) was incubated overnight with 1 mM inhibitor or DMSO, and then dialysed for 8 h with regular replacement of dialysis buffer into HEPES-buffered saline (50 mM HEPES, pH 7.5, 250 mM NaCl, 0.02% MTG). […] Reactions were stopped by addition of SDS-PAGE loading buffer and analyzed by SDS-PAGE. […]

In test [2] the target is T1, immobilized CDK2/cyclin A (Homo sapiens, UniProt P24941).
T1 construct: made in house; host or cells: Escherichia coli
As to the kind of experiment: SPR kinetics of non-covalent complex. The class given is binding. The conditions noted are these: 1:1 model, 25 °C. From the text:
To determine the kinetics of the interactions of NU6310 and NU6300 with immobilized CDK2/cyclin A, the sensor surface was exposed to five different concentrations of each inhibitor for different contact times (Figures 2A and 2B). On these relatively short time scales (compared with the experiment above), the interactions between CDK2 and either NU6300 or NU6310 appeared reversible, since the sensorgrams were well described by a simple 1:1 model and the dissociation was similar irrespective of the contact time. It enabled the estimation of the kinetic constants (kon, koff, KD) for the formation of the non-covalent complex. […] The formation of a covalent complex could not be detected on the time scales of these experiments, and the injection times could not be extended further for practical reasons.
Figure 2 NU6300 Is a Covalent Inhibitor of CDK2 (A and B) SPR sensorgrams for the interaction between immobilized CDK2 and NU6310 and NU6300. (A) The effects of time on the interaction were evaluated by comparing the dissociation rates for the compounds injected at 10 μM for different contact times (30, 60, 120, and 240 s). Sensorgrams are aligned with respect to the start of the dissociation. (B) The determination of rate constants was based on global analysis of a set of sensorgrams recorded for a concentration series (39, 156, 625, 2,500, and 10,000 nM) of the compounds. Theoretical curves of a fitted 1:1 Langmuir interaction model (black) are overlaid on the experimental traces. (C) Phosphorylation of GST-Rb by CDK2/cyclin A. The slower-migrating band is hyperphosphorylated GST-Rb (Phospho-Rb). Time points (in minutes) are shown above. (D) Time-dependent inhibition of CDK2/cyclin A. Activity was measured using the ADP-Glo assay format against a peptide of sequence HHASPRK. Error bars indicate SD of the measurements. See also Figure S1 and Table S1.
The interaction experiments were performed using SPR biosensor technology, with Biacore S51 and T100 instruments, CM5 biosensor chips, and standard reagents (GE Healthcare). Full details can be found in the Supplemental Experimental Procedures. […]
CDK2 was immobilized to activated carboxylated dextran surfaces by amine coupling to give surface densities of 6000-25000 RU. All interaction experiments were performed at 25 °C in 10 mM phosphate pH 7.4, 137 mM NaCl, 3 mM KCl, with addition of 0.05 % Tween 20, 5 % (v/v) DMSO, and at a flow rate of 90 or 30 µL/min. […]
Sensorgrams or extracted report points from reference surfaces and blank injections were subtracted from the raw data prior to data analysis, using Biacore T100 evaluation software 2.0. A 1:1 interaction model was fitted globally to sets of sensorgrams recorded with different contact times and at different inhibitor concentrations in multi-cycle experiments. Kinetic parameters were determined from sensorgrams with 30 s and 60 s contact time. Standard deviations were based on at least 4 measurement series.
CDK2/cyclin A was mixed with a freshly prepared solution of NU6300 to achieve DMSO and inhibitor concentrations of 2% and 2 mM respectively, concentrated by ultrafiltration to a CDK2/cyclin A final concentration of circa 5 mg ml-1, and then crystallized as described (Davies et al., 2002). Briefly, crystals were grown from a mother liquor containing 0.6–0.8 M KCl, 0.9–1.2 M (NH4)2SO4, and 100 mM HEPES (pH 7.0). Sitting drops were set up with a 1:1 ratio of protein to reservoir solution in a total initial volume of 0.5 or 1.0 µl.
Before data collection, crystals were briefly immersed in cryo-protectant (1 M sodium

`C=CS(=O)(=O)c1ccc(Nc2nc(OCC3CCCCC3)c3nc[nH]c3n2)cc1` [NU6300, 6-(cyclohexylmethoxy)-N-(4-(vinylsulfonyl)phenyl)-9H-purin-2-amine]: the “CDK2 activity against Rb after incubation with inhibitor and dialysis” value in test [1] is “not recovered; also recorded: did not”. In test [2], this molecule showed an equilibrium dissociation constant (Kd) of 1310 ± 180 nM, an off-rate (koff) of 0.0713 ± 0.0063 s⁻¹ and a kon of 54500 ± 7.2e+08 M⁻¹ s⁻¹.

Regarding `CCS(=O)(=O)c1ccc(Nc2nc(OCC3CCCCC3)c3nc[nH]c3n2)cc1` [NU6310, 6-(cyclohexylmethoxy)-N-(4-(ethylsulfonyl)phenyl)-9H-purin-2-amine], the “CDK2 activity against Rb after incubation with inhibitor and dialysis” value in test [1] is recorded as “could phosphorylate Rb; also recorded: recovered their activity”. In test [2], this molecule displayed a Kd of 716 ± 12 nM, a koff of 0.0809 ± 0.007 s⁻¹ and a kon of 113000 ± 1e+09 M⁻¹ s⁻¹.
